Test results: paper PMC9952331, “Ethyl Gallate Isolated from Castanopsis cuspidata var. sieboldii Branches Inhibits Melanogenesis and Promotes Autophagy in B16F10 Cells” (Antioxidants, 2023)
In brackets after ≈: the same amount, converted by molar mass.

Legend:
mushroom tyrosinase [1] = experiment: cell-free tyrosinase inhibition assay with L-tyrosine substrate, absorbance at […] nm; type: biochemical
mushroom tyrosinase [2] = experiment: enzyme kinetics with L-DOPA substrate, Lineweaver-Burk plot; IC50 […] also reported; type: biochemical

IC50 (mushroom tyrosinase [1]) | Ki (mushroom tyrosinase [2]) | Structure (SMILES)
30.99 ± 0.86 mg/L (≈ 176 µM) | – | O=C1O[C@H]([C@@H](O)CO)C(O)=C1O [ascorbic acid]
– | 434 µM | CCOC(=O)c1cc(O)c(O)c(O)c1 [Compound 1, ethyl gallate]
